# Measurements published in US20260151360A1, “ENDOXIFEN COMPOSITIONS AND METHODS OF USE THEREOF AND SYNTHESIS THEREOF” (Atossa Therapeutics, Inc., priority 2023, published 2026).
# Where two headings read alike, the source gives them in different places.
# Key:
# [1] = cited from earlier work
# [2] = (Z)-Endoxifen solubility in dissolution media (pH 6.8 buffer with and without Polysorbate 80); assay type: physicochemical
# Method: This example describes development of a dissolution assay to measure dissolution of endoxifen formulations. […] Polysorbate 80 (PS80), a nonionic surfactant, was added in varying concentrations to improve solubility and mimic an intestinal environment. Surfactants, such as polysorbate 80, create micelles in the medium that mimic the bile acid aggregates in the small intestine. These micelles facilitate the diffusion and transport of product into the medium.
# [3] = Plasma pharmacokinetics of endoxifen after administration of the compositions; assay type: in vivo; conditions: for half-life: endoxifen released from a composition disclosed herein; for AUC(0-t): read-out: mean AUC24hr
compound,measurement,setting,value
"CC/C(=C(\c1ccccc1)c1ccc(OCCN(C)C)cc1)c1ccccc1 [tamoxifen, (Z)-2-[4-(1,2-diphenyl-1-butenyl)phenoxy]-N,N-dimethylethanamine]",Terminal elimination half-life,[1]; Jordan C. Steroids 2007,120 to 170 h
same,peak concentration time,[1]; post-dose,approximately 5 hours
same,Reported therapeutic levels of plasma tamoxifen,[1]; subjects dosed with 20 mg of oral tamoxifen (Lyon et al. 2012),≥ 30 nM
"CC/C(=C(\c1ccc(O)cc1)c1ccc(OCCNC)cc1)c1ccccc1 [endoxifen, 4-hydroxy-N-desmethyl-tamoxifen]",solubility as a function of pH,[2],decreases as pH becomes less acidic
same,day by which steady state plasma levels are achieved,[3]; daily administration of a composition,≤ 7 days
same,half-life,"[3]; human, plasma, read-out: mean half-life",40 to 53 h
same,half-life,"[3]; human, plasma, read-out: terminal elimination half-life",30 to 60 h
CC/C(=C(\c1ccc(O)cc1)c1ccc(OCCNC)cc1)c1ccccc1 [(Z)-endoxifen],AUC(0-t),"[3]; human, plasma, Day 1 of initial (first) dose, composition comprising 1 mg to 4 mg of (Z)-endoxifen",150 to 600 ng·h/mL
same,AUC(0-t),"[3]; human, plasma, Day 21, compositions comprising 1 mg to 4 mg of (Z)-endoxifen",400 to 2500 ng·h/mL
same,AUC(0-inf),"[3]; human, plasma, dosing range of 1 mg to 4 mg of (Z)-endoxifen",400 to 6000 ng·h/mL
